According to patent US20070161547A1, “Modulation of survivin expression” (priority 2003, published 2007):
Oligonucleotides are written 5' to 3', each unit as a sugar letter and its base; * is a phosphorothioate linkage, no mark a phosphodiester; rarer units and linkages stand in square brackets, end groups in braces. Plain capitals give the bases only. e = 2'-O-(2-methoxyethyl) (MOE); m = 2'-O-methyl; r = 2'-OH (RNA); {P} = phosphate

System: human survivin mRNA
Test: Inhibition of human survivin mRNA by single-stranded asRNA in HUVEC, real-time quantitative PCR
Type: cell-based
Set-up: concentration or dose not given beside the values
Conditions: Table 7
Protocol: HUVEC were obtained from ATCC and routinely cultured in EBM (Clonetics Corp, Walkersille, Md.) supplemented with SingleQuots supplements. Cells were routinely passaged by trypsinizaiton and dilution when they reached 90% confluence were maintained for up to 15 passages. For cells grown in 96-well plates (10,000 cells/well), wells were washed once with 200 μL OPTI-MEM-1™ reduced-serum medium (Gibco BRL) and then treated with 130 μL of OPTI-MEM-1™ containing 12 μg/mL LIPOFECTIN™ (Gibco BRL) and the desired double-stranded compounds at a final concentration of 25 nM. After 5 hours of treatment, the medium was replaced with fresh medium. Cells were harvested 16 hours after dsRNA treatment, at which time RNA was isolated and target reduction measured by RT-PCR.
A series of single-stranded olgometric compounds (asRNA) was evaluated for their ability to inhibit human survivin in human umbilical vein endothelial cells (HUVEC). Culture methods used for HUVEC are found, for example, at www.atcc.org.
Data were obtained by real-time quantitative PCR as described in other examples herein.

Q: For “347447 (antisense {P}-rG*rA*rA*rC*rG*rU*rG*rA*rC*rA*rG*rA*rU*rG*rU*rG*rA*rA*rG*rG) [compound 347447]”, which “% INHIB, inhibition of human survivin mRNA levels by asRNA oligomeric compounds” value (“% INHIB, inhibition” for short) is on record?
A: 47%

Q: Which “% INHIB, inhibition” value does the source give for “347448 (antisense {P}-rU*rC*rC*rA*rU*rC*rA*rU*rC*rU*rU*rA*rC*rG*rC*rC*rA*rG*rA*rC) [compound 347448]” here?
A: 58%

Q: For “347449 (antisense {P}-rG*rG*rC*rG*rA*rA*rU*rC*rA*rA*rA*rU*rC*rC*rA*rU*rC*rA*rU*rC) [compound 347449]”, which “% INHIB, inhibition” value is on record?
A: 51%

Q: “347450 (antisense {P}-rA*rU*rC*rC*rA*rC*rC*rC*rU*rG*rC*rA*rG*rC*rU*rC*rU*rA*rU*rG) [compound 347450]” was tested. Which “% INHIB, inhibition” value did it give?
A: 55%

Q: How did the “% INHIB, inhibition” value turn out when “347451 (antisense {P}-rG*rC*rC*rG*rA*rG*rA*rU*rG*rA*rC*rC*rU*rC*rC*rA*rG*rA*rG*rG) [compound 347451]” was run?
A: 59%

System: human survivin mRNA
Test: Inhibition of human survivin mRNA expression in HeLa cells, real-time quantitative PCR
Type: cell-based
Conditions: Table 11; 0.2 nM; 16 h; averages from two experiments
How it was run: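 HeLa cells in DMEM with 10% FBS treated with antisense oligonucleotides; survivin mRNA quantified by one-step real-time RT-PCR (RT 30 min at 48 °C, 40 two-step cycles) with a FAM/TAMRA probe, GAPDH measured alongside. Percent inhibition read from a standard curve of untreated-control mRNA dilutions.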

Q: Which “Percentage of Inhibition of survivin expression in HeLa cells” value (from here on “Percentage of Inhibition … in HeLa cells”) does the source give for “339048_346294 (antisense AUUUGAAAAUGUUGAUCUCC; sense rA*rGrG*rArG*rArU*rCrA*rArC*rArU*rUrU*rUrC*rArA*rA; siRNA; antisense: unmodified RNA)” here?
A: 39%

Same assay, conditions: Table 11; 2.0 nM; 16 h; averages from two experiments

Q: “339048_346294 (antisense AUUUGAAAAUGUUGAUCUCC; sense rA*rGrG*rArG*rArU*rCrA*rArC*rArU*rUrU*rUrC*rArA*rA; siRNA; antisense: unmodified RNA)” was tested. Which “Percentage of Inhibition … in HeLa cells” value did it give?
A: 65%

Same assay, conditions: Table 11; 20.0 nM; 16 h; averages from two experiments

Q: How did the “Percentage of Inhibition … in HeLa cells” value turn out when “339048_346294 (antisense AUUUGAAAAUGUUGAUCUCC; sense rA*rGrG*rArG*rArU*rCrA*rArC*rArU*rUrU*rUrC*rArA*rA; siRNA; antisense: unmodified RNA)” was run?
A: 85%

System: human survivin mRNA
Test: IC50 of dsRNA for survivin mRNA, dose response by quantitative RT-PCR ("D")
Type: cell-based
Conditions: D (dose response, mRNA levels), HeLa cells; read-out: IC50
Protocol: Representative parameters that can be studied include, for example, translation of survivin mRNAs or survivin protein synthesis; effect on surrogate markers; or any other parameter that is indicative of potential dsRNA therapeutic effectiveness that can be conveniently measured in vitro.
For western blot analysis, cells are plated in 10 cm tissue culture dishes (Falcon, #3003) at a density of 7.5×10^5 cells/dish. For RT-PCR analysis, 96-well plates (Corning Incorporated, #3596) are plated with 1×10^4 cells/well. Lipofectin (GIBCO/Invitrogen) transfection reagent is used at a concentration of 3 ul/ml OPTIMEM reduced serum medium (Gibco/Invitrogen)/100 nM siRNA duplex. Lipofectin reagent is incubated with OPTIMEM medium for 30 minutes prior to the addition of siRNA. The desired amount of siRNA is added and mixed. Further 1:1 dilutions are performed in OPTIMEM. Cells are washed twice with 1× phosphate buffered saline and then treated with the siRNA/Lipofectin mixture in OPTIMEM. After a 4 hr incubation period, OPTIMEM medium is replaced with complete growth medium. Cells are harvested after additional 16-20 hrs for Western blot or RT-PCR analysis.
Total RNA is isolated using RNeasy® 96 kit according to recommended protocol (Qiagen). Briefly, cells are washed with 200 ul PBS after removal of growth medium. Following washing, 100 μl buffer RLT is added, plate is shaken vigorously for about 20 seconds. To each well 100 μl 70% ethanol are added and mixed by pipetting up and down three times. Samples are then applied into the wells of the RNeasy 96 plate placed in the QIAvac top base of the QIAvac 96 manifold, which is attached to a vacuum source. Vacuum is applied for 30 seconds or until transfer is complete. To each well 80 μl of DNase I incubation mix (20 mM Tris-HCl, pH 8.4, 2 mM MgCl2, 50 mM KCl and 225 Units/ml DNase I from Invitrogen) is added and incubated at room temperature for 30 minutes. Buffer RW1 (1 ml/well) is added and the vacuum is applied for 30 seconds. Buffer RPE (1 ml/well) is added to each well and vacuum is applied for 30 seconds. Washing steps with buffer RW1 and RPE1 are repeated once more. The plate is then removed from the manifold and blotted dry on paper towels. The plate is placed back in the QIAvac manifold and the vacuum is applied for 10 minutes. To elute RNA 30 μl of RNase-free water is added directly onto the membrane of each well, incubated for 1 minutes and vacuum is applied for 30 seconds. In order to maximize the recovery of total RNA the elution step is repeated with additional 30 μl/well RNase-free water.
Quantitation of survivin and GAPDH mRNA levels is determined by real-time quantitative RT-PCR using the ABI PRISM® 7900 Sequence Detection System (Applied Biosystems). RT-PCR reactions are carried out by adding 15 ul of TaqMan One Step PCR Master Mix (Applied Biosystems, #4309169) reagents (containing 100 nM each of forward primer and reverse primer, and 200 nM probe) to 96-well plates with 10 μl total RNA. For human survivin, the forward PCR primer is: 5′[…]3′ (SEQ ID NO: 186), and the reverse primer is: 5′[…]3′ (SEQ ID NO: 187). The survivin TaqMan® probe used is 5′(FAM)[…]3′ (SEQ ID NO: 188) (Biosearch Technologies, Inc.). This primer-probe set, designed to SEQ ID No 14 was used for all experiments in Examples 15 to the end. For human GAPDH, TaqMan GAPDH Control Reagent Kit is used (Applied Biosystems, #402869). The percentage inhibition for each samples are calculated by comparing the survivin/GAPDH mRNA ratio for the sample to survivin/GAPDH mRNA ratio for the untreated control. The IC50 is derived from the non-linear regression analysis of the percentage inhibition data using GraphPad Prism software (GraphPad Software).
The constructs tested comprise the antisense strand in the 5′-3′ orientation, and the sense strand in the 5′ to 3′ orientation, In Table 15, “D” is dose response (mRNA levels) and “W” is Western blot. […]

Q: “339048_346294 (antisense AUUUGAAAAUGUUGAUCUCC; sense rA*rGrG*rArG*rArU*rCrA*rArC*rArU*rUrU*rUrC*rArA*rA; siRNA; antisense: unmodified RNA)” was tested. Which IC50 did it give?
A: 0.24 nM

Same assay, conditions: Table 16; cell line not given; read-out: IC50 (nM) mRNA, dsRNA to human survivin

Q: With “ISIS 346284_346287: blunt-ended siRNA 19 PO-PS/PS: antisense 346284, sense 346287 (antisense rUrU*rUrG*rArA*rArA*rUrG*rUrU*rGrA*rUrC*rUrC*rC; sense rG*rG*rA*rG*rA*rU*rC*rA*rA*rC*rA*rU*rU*rU*rU*rC*rA*rA*rA)” as the substance, how does the IC50 read?
A: 3.24 nM

Q: With “ISIS 352506_352514: blunt-ended siRNA duplex: antisense 352506, sense 352514 (antisense mUrUrUrGrAmAmArArUmGrUrUrGrArUrCmUmCmC; sense GGAGAUCAACAUUUUCAAA; sense: sugars from the 5' end rererererererererer, all phosphodiester, methylation of C and T or U not given here)” as the substance, how does the IC50 read?
A: 0.12 nM

Q: With “ISIS 352507_346287: dsRNA duplex: antisense 352507, sense 346287 (antisense mUrUmUrGmArAmArAmUrGmUrUmGrAmUrCmUrCmC; sense rG*rG*rA*rG*rA*rU*rC*rA*rA*rC*rA*rU*rU*rU*rU*rC*rA*rA*rA)” as the substance, how does the IC50 read?
A: 0.8 nM

Q: With “ISIS 352507_352511: blunt-ended siRNA duplex: antisense 352507, sense 352511 (antisense mUrUmUrGmArAmArAmUrGmUrUmGrAmUrCmUrCmC; sense GGAGAUCAACAUUUUCAAA; sense: all phosphodiester, sugars by position and methylation of C not given here; further chemistry not fully specified)” as the substance, how does the IC50 read?
A: 0.24 nM

Q: How did the IC50 turn out when “ISIS 352507_352512: blunt-ended siRNA duplex: antisense 352507, sense 352512 (antisense mUrUmUrGmArAmArAmUrGmUrUmGrAmUrCmUrCmC; sense mGmGmAmGmAmUmCmAmAmCmAmUmUmUmUmCmAmAmA)” was run?
A: 0.04 nM

Q: Which IC50 does the source give for “ISIS 352507_352514: blunt-ended siRNA duplex: antisense 352507, sense 352514 (antisense mUrUmUrGmArAmArAmUrGmUrUmGrAmUrCmUrCmC; sense GGAGAUCAACAUUUUCAAA; sense: sugars from the 5' end rererererererererer, all phosphodiester, methylation of C and T or U not given here)” here?
A: 0.21 nM

Q: With “ISIS 353538_343868: dsRNA duplex: antisense 353538 (4'-thio), sense 343868 (unmodified) (antisense UUUGAAAAUGUUGAUCUCC; sense GGAGAUCAACAUUUUCAAA; antisense: all phosphodiester, sugars by position and methylation of C not given here; sense: RNA, phosphodiester; antisense has 4'-thioribose at some positions, positions stated inconsistently, further chemistry not fully specified)” as the substance, how does the IC50 read?
A: 0.16 nM

Q: With “ISIS 353539_343868: dsRNA duplex: antisense 353539, sense 343868 (antisense UUUGAAAAUGUUGAUCUCC; sense GGAGAUCAACAUUUUCAAA; chemical modifications, chemistry not fully specified)” as the substance, how does the IC50 read?
A: 0.13 nM

Q: For “ISIS 353540_343868: dsRNA duplex: antisense 353540, sense 343868 (antisense UUUGAAAAUGUUGAUCUCC; sense GGAGAUCAACAUUUUCAAA; chemical modifications, chemistry not fully specified)”, which IC50 is on record?
A: 0.11 nM

Q: With “ISIS 355710_343868: dsRNA duplex: antisense 355710, sense 343868 (antisense UUUGAAAAUGUUGAUCUCC; sense GGAGAUCAACAUUUUCAAA; chemical modifications, chemistry not fully specified)” as the substance, how does the IC50 read?
A: 0.1 nM
